Assay results taken from ChEMBL document CHEMBL1201862, “PubChem BioAssay data set” (2004).
Active and inactive are the calls of the source.

Columns and labels:
[1] = molecular target: Galanin receptor type 3 (Homo sapiens, UniProt O60755); assay: Fluorescence-based cell-based primary high throughput dose response assay to identify antagonists of the Galanin Receptor 3 (GalR3).; type: functional
[2] = cells; type: functional, cell-based; conditions: HEK-CNG
[3] = molecular target: Hepatocyte nuclear factor 4-alpha (Homo sapiens, UniProt P41235); type: functional, cell-based;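 note: biochemical luminescence-based dose-response counterscreen measuring inhibition of HNF4 dimerization, run alongside a screen for blockers of ABHD5–perilipin-5 interaction; split luciferase complementation of HNF4 fusion proteins in cell lysate measuring dimerization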
[4] = molecular target: T1, Sentrin-specific protease 8 (Homo sapiens, UniProt Q96LD8); type: functional
T1 sequence (Q96LD8 whole entry): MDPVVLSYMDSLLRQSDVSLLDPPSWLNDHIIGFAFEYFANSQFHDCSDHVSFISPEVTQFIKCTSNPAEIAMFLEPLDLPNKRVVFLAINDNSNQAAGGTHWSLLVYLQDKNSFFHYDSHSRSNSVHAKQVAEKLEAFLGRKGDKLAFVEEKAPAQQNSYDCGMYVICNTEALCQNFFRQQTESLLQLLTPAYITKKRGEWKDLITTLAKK

[5] = molecular target: T1, Sentrin-specific protease 8; type: functional; remark: listed apart in the source
[6] = molecular target: T2, Caspase-6 (Homo sapiens, UniProt P55212); assay: inhibition of CASP6 peptide cleavage – biochemical, VEID-R110 fluorescence, cherry-pick, dose response (AID 720632)
T2 sequence (P55212 whole entry): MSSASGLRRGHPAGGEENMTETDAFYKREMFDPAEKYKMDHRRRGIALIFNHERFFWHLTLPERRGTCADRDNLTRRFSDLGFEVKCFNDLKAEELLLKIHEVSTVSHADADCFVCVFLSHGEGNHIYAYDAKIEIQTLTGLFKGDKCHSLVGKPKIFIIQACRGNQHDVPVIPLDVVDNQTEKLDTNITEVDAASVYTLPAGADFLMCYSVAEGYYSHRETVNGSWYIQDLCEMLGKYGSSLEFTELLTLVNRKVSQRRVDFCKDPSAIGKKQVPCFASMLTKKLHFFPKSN

[7] = molecular target: T3, RNA-binding protein pos-1 (Caenorhabditis elegans, UniProt G5EF15); assay: disruptors of C. elegans POS-1 RNA interaction – biochemical, fluorescence polarization, dose response (AID 1964);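 note: purified POS-1 fused to maltose binding protein made in E. coli; potency of compounds blocking POS-1 binding to fluorescent RNA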
T3 sequence (G5EF15 whole entry): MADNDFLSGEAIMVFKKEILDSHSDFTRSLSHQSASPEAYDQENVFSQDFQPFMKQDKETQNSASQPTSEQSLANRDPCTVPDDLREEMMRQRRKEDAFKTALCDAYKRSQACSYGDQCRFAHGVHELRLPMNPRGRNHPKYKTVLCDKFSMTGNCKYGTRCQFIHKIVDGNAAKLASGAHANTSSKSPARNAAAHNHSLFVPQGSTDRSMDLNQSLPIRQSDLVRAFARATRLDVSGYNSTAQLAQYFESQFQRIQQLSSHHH

[8] = molecular target: T4, Zinc finger protein mex-5 (Caenorhabditis elegans, UniProt Q9XUB2); assay: potency of MEX-5 RNA-binding blockers – biochemical, C. elegans, fluorescence polarization, dose response (AID 1960)
T4 sequence (Q9XUB2 whole entry): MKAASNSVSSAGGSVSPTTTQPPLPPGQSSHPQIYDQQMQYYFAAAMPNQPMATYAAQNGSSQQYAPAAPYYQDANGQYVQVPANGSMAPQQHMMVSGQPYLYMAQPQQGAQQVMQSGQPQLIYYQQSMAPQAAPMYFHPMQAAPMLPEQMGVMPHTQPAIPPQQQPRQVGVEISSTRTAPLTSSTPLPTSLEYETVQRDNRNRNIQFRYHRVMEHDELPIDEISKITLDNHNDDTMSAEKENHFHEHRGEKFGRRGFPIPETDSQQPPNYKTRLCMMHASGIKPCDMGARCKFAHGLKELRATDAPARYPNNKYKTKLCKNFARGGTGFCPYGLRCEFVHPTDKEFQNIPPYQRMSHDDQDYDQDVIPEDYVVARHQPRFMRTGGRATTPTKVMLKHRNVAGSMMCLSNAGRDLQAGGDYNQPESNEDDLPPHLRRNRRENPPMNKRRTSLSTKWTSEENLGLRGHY

[9] = molecular target: T5, Endoribonuclease toxin MazF (Escherichia coli K-12, UniProt P0AE70); assay: activation of MazEF endoribonuclease cleavage – biochemical, fluorescence, single-stranded RNA substrate, uHTS hits, dose response (AID 588481); type: functional
T5 sequence (P0AE70 whole entry): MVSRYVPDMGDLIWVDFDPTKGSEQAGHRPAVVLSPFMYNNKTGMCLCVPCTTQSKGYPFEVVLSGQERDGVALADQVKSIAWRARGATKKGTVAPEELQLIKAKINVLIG

[10] = molecular target: T5, Endoribonuclease toxin MazF; assay: substrate-only fluorescence increase artefacts – biochemical, single-stranded RNase substrate, counter-screen for MazEF activator project, dose response (AID 588502); type: functional
[11] = molecular target: T6, Corticotropin-releasing factor receptor 2/Corticotropin-releasing factor-binding protein (Homo sapiens, UniProt P24387+Q13324); assay: activators of CRF receptor 2 with binding protein – uHTS hits, confirmation (AID 602473); type: functional; conditions: read-out: EC50_Mean
T6 sequence (Q13324 whole entry): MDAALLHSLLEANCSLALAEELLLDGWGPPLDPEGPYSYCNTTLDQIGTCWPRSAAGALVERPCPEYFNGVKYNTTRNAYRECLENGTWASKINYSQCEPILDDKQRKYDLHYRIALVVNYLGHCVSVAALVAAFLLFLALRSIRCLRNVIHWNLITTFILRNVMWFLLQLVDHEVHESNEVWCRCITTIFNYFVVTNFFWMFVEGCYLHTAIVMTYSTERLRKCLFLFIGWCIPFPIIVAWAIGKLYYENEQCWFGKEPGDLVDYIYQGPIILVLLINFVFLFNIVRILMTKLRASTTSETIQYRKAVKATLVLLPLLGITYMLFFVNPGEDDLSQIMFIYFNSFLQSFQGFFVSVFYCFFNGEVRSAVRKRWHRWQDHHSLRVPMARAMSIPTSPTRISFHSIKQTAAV
T6 sequence (P24387 whole entry): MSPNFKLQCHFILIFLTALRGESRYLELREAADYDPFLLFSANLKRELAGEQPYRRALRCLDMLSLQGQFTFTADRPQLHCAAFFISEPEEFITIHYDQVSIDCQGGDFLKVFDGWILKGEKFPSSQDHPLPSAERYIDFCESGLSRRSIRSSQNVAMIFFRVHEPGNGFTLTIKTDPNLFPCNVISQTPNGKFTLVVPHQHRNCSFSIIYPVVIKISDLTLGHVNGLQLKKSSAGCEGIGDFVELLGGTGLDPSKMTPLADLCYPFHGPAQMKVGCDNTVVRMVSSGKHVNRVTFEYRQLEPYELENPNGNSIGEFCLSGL

[12] = viability loss in CEM21 cells – cell-based, CellTiter-Glo luminescence, cherry-picked, cytotoxicity control for viral fusion inhibitor project, dose response (AID 652042); type: functional;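 note: potency for signal decrease meaning cytotoxicity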
[13] = blockers of HIV-1 ZM109 envelope-driven cell-cell fusion – HeLa effector, CEM target cells, luciferase, cherry-pick, dose response (AID 652058); type: functional, cell-based;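 note: luciferase signal from HIV-1 Env mediated cell-cell fusion of effector and target cells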
[14] = molecular target: T7, Streptokinase A (Streptococcus pyogenes serotype M1, UniProt P10520); assay: viability-normalized secreted streptokinase activity reduction – plasminogen activation absorbance, OD405, dose response (AID 1914); type: functional, Streptococcus pyogenes M1 GAS;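 note: secreted streptokinase activity via plasminogen activation per viability signal from cell pellet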
T7 sequence (P10520 whole entry): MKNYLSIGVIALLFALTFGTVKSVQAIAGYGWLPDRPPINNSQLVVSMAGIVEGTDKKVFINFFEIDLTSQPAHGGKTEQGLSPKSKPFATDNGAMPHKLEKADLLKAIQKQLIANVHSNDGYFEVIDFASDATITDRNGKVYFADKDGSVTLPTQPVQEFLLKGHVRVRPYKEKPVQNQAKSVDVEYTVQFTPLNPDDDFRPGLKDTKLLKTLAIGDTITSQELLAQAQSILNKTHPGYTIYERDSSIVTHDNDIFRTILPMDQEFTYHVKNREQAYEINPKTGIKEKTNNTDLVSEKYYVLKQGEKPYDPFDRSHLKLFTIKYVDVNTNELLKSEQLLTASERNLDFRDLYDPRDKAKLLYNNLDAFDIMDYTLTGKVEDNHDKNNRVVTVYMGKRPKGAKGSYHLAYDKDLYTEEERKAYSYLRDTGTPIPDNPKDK

[15] = molecular target: T8, Apoptotic protease-activating factor 1 (Homo sapiens, UniProt O14727); type: functional
T8 sequence (O14727 whole entry): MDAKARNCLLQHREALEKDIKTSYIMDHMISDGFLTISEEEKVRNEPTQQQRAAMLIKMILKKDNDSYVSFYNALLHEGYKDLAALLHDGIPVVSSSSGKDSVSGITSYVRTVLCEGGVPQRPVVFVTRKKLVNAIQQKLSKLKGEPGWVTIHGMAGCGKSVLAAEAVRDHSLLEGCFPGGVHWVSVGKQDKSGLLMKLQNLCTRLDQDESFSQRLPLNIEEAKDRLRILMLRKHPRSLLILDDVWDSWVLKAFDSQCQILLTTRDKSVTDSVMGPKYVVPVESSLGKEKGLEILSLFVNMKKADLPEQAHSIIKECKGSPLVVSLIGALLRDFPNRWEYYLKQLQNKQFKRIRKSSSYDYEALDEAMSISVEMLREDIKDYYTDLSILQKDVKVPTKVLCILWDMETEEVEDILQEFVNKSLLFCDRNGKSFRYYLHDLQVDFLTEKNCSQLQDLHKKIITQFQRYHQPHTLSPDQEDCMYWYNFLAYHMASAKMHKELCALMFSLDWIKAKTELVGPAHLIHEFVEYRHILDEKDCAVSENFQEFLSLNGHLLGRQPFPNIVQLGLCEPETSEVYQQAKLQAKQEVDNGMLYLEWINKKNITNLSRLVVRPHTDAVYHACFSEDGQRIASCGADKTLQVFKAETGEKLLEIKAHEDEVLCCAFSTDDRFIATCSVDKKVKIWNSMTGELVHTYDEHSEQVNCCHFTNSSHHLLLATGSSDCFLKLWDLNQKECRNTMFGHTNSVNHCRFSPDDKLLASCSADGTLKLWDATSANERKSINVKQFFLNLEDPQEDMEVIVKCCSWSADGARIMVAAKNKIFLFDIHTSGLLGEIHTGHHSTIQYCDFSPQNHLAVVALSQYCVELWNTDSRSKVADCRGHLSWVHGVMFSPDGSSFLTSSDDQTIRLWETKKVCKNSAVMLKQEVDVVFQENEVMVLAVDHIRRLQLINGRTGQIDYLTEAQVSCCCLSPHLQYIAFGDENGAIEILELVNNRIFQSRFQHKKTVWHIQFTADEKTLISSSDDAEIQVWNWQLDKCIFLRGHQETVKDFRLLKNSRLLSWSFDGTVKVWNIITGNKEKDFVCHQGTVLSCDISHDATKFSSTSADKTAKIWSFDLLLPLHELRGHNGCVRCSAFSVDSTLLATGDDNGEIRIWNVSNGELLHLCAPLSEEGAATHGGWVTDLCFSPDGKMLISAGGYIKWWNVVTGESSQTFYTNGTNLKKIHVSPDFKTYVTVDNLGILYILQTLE

[16] = cells; type: functional, cell-based
[17] = cells; type: functional, cell-based; remark: listed apart in the source
[18] = test system: A549; assay: viability loss in A549 cells – cell-based, plate reader, cherry-pick samples, cytotoxicity control, dose response (AID 687028); type: functional; conditions: Homo sapiens
[19] = test system: CHO; assay: CHO cell viability loss, potency – luminescence, cytotoxicity control for TLR9-MyD88 binding inhibitor project, dose response (AID 588339); type: functional, cell-based, hamster; conditions: Cricetulus griseus;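 note: CHO cells stably coexpressing TLR9 and MyD88 fusions from primary screen; compound exposure lasted 48 hours before viability readout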
[20] = molecular target: Beta Lactamase (Pseudomonas aeruginosa, UniProt Q932Y6); assay: BLA reporter interference, concentration series – BLA reporter cells, FRET fluorescence, artefact control for TLR9-MyD88 binding inhibitor project, dose response (AID 588341); type: cell-based;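 note: cell based assay in CHO-K1 cells stably expressing beta-lactamase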
[21] = molecular target: Paired box protein Pax-8 (Homo sapiens, UniProt Q06710); assay: PAX8 transcriptional activity inhibition in RMG-I – RMG-I cells, luciferase, cherry-pick, dose response (AID 687027); type: functional, cell-based;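 note: luciferase reporter driven by Pax8 target thyroperoxidase promoter measured by SteadyGlo luminescence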
[22] = OVCAR8 cell viability loss – plate reader, dry powder samples, PAX8 project, dose response (AID 743197); type: functional, cell-based; conditions: OVCAR-8
[23] = Dd2 parasite growth inhibition in erythrocytes – SYBR Green, dry powder samples, set 9, dose response (AID 1159568); type: functional, cell-based

Galanin receptor type 3, sequence (O60755 whole entry): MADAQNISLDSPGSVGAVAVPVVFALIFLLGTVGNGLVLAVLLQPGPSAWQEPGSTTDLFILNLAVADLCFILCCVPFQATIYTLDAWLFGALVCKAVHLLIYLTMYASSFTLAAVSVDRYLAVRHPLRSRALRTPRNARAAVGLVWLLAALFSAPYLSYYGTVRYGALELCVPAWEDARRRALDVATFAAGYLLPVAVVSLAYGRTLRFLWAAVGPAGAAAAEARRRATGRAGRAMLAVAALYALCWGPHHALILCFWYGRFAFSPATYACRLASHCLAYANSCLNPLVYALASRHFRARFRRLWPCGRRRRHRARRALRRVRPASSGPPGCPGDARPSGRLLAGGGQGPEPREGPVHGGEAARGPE
Hepatocyte nuclear factor 4-alpha, sequence (P41235 whole entry, the tested form may be a part): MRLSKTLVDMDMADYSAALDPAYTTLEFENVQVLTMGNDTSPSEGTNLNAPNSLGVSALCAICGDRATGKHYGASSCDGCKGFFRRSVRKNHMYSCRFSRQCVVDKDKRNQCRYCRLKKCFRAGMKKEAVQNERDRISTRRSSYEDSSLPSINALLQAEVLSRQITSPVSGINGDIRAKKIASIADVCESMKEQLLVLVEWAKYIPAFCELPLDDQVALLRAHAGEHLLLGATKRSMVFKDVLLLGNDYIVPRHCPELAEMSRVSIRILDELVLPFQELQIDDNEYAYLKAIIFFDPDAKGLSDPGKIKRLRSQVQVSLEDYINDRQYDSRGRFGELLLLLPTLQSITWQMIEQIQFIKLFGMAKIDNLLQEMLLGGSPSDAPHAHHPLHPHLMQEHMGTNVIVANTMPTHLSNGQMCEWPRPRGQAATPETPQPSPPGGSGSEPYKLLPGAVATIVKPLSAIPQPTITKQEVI
Paired box protein Pax-8, sequence (Q06710 whole entry): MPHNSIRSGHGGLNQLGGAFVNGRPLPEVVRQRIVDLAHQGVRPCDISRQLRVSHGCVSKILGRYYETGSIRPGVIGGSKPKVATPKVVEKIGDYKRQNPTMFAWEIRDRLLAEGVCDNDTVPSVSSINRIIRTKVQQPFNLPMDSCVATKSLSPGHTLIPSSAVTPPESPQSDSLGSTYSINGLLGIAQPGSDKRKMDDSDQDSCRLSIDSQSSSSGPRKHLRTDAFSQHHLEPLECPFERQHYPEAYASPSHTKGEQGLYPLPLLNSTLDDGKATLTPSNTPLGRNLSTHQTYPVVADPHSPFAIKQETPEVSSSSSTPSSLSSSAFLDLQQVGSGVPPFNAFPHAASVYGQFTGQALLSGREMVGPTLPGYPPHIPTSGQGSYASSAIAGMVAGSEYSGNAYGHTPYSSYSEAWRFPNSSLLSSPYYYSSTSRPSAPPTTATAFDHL
Beta Lactamase, sequence (Q932Y6 whole entry): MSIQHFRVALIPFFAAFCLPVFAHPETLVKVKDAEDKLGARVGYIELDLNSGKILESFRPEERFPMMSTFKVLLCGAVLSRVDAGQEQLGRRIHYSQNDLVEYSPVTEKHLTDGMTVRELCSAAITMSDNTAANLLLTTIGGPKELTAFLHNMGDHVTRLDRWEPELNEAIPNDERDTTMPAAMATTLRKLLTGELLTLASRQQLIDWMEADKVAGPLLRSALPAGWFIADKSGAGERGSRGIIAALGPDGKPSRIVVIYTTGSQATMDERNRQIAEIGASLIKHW

CC(C)(C)CN1CCN(Cc2nc(-c3ccc(F)cc3)cs2)CC1CCO (centres undefined)
IC50 [1]: 2.83 µM (active)
EC50 [2]: > 29.9 µM (inactive)

CC(C)(C)NC(=O)C(c1ccc(C#N)cc1)n1c(=O)c(-c2ccco2)nc2ccccc21 (centres undefined)
IC50 [3]: 1.47 µM (active)

CCC(CC)C(=O)Nc1ccc([N+](=O)[O-])cn1
IC50 [1]: > 29.9 µM (inactive)
EC50 [2]: > 29.9 µM (inactive)

Cc1cccc(N2C(=O)Cc3ccccc3C2=O)c1
IC50 [4]: > 100 µM (inactive)
IC50 [5]: 5.17 µM (active)
AC50 [6]: 22.7 µM (active)

COc1ccc(N/C=C2/C(=O)N(c3cccc(C)n3)C(=O)c3ccccc32)c(OC)c1
EC50 [7]: > 300 µM (not active)
EC50 [8]: 55.4 µM (inconclusive)
EC50 [9]: > 99 µM (inactive)
EC50 [10]: 14.5 µM (active)
EC50 [11]: 8.64 µM (active)

C[C@@H]1CN([C@H](C)CO)S(=O)(=O)c2ccc(C#Cc3cccc(F)c3)cc2O[C@@H]1CN(C)C(=O)CN1CCOCC1
AC50 [12]: 40.3 µM (active)
AC50 [13]: 0.899 µM (active)

Oc1ccccc1-c1nc(NCc2ccco2)c2ccccc2n1
EC50 [9]: > 99 µM (inactive)
EC50 [10]: > 99 µM (inactive)

CCCCC[n+]1ccn(C2=C([N-]S(=O)(=O)c3ccc(Br)cc3)C(=O)c3ccccc3C2=O)c1
EC50 [14]: > 150 µM (not active)
IC50 [15]: 9.66 µM (active)

O=C(O)C1C2CCC(C2)C1C(=O)NCCc1ccccc1 (centres undefined)
IC50 [16]: > 29.9 µM (inactive)
EC50 [17]: > 29.9 µM (inactive)

Cc1cccnc1C(NC(=O)C1CCN(CCCc2ccccc2)CC1)c1ccc(Cl)cc1 (centres undefined)
AC50 [18]: 27.9 µM (active)

N#Cc1ccccc1OCc1cn(CC(=O)c2ccc(O)cc2)nn1
IC50 [3]: 6.36 µM (active)

N#C/C(=C/c1ccc(-c2ccc(S(N)(=O)=O)cc2)o1)c1nc2ccccc2s1
IC50 [19]: 22.1 µM (inactive)
IC50 [20]: 5.09 µM (active)

CS(=O)(=O)N1C[C@@H]2N[C@H](C1)[C@@H]2c1ccc(-c2ccccc2)cc1
AC50 [18]: 17.7 µM (active)
AC50 [21]: 4.42 µM (active)
AC50 [22]: > 60 µM (inactive)
AC50 [23]: 9.14 µM (active)
